Earlier results on two compounds are cited in PMC5132270 (Cancer Science, 2016).

Data set [1] concerns models of crizotinib resistance. The note with it: preclinical studies.

For the compound `CCc1cc2c(cc1N1CCC(N3CCOCC3)CC1)C(C)(C)c1[nH]c3cc(C#N)ccc3c1C2=O` [alectinib], in data set [1], the antitumor effect result is “tumor size reduction”.
As for `Cc1cc(Nc2ncc(Cl)c(Nc3ccccc3S(=O)(=O)C(C)C)n2)c(OC(C)C)cc1C1CCNCC1` [ceritinib], in the data set on ALK+ NSCLC, the “median PFS” value is recorded as 7.0 months.
